{"source": "patent US20110034565A1", "about": "“PSYCHO-PHARMACEUTICALS” (University College Dublin, National University of Ireland, …, priority 2008, published 2011)", "key": {"C57B16 mice [1]": {"test_system": "C57B16 mice", "experiment": "Water maze spatial learning", "assay_type": "in vivo", "settings": "i.p. once daily prior to testing, FIG. 6", "protocol": "The Morris water maze (MWM) is a test of spatial learning for rodents that relies on distal cues to navigate from start locations around the perimeter of an open swimming arena to locate a submerged escape platform. Spatial learning is assessed across repeated trials and reference memory is determined by preference for the platform area when the platform is absent.\nThe test apparatus consists of a large circular pool (1 m diameter, 80 cm high, temperature 26° C.) with a platform (11 cm diameter) submerged 1.5 cm below the surface. Both the pool and the platform were constructed of black polyvinyl plastic, which offered no intra-maze cues. The experimental room contained several extra-maze visual cues. During training the platform was hidden in the same quadrant 30 cm away from the edge of the maze. There were five trials, each of them beginning with the rat facing the wall of the maze in one of three different locations. The time taken for the rat to find the platform within a 90s period was recorded. Probe trials where the platform was removed from the maze and the time the animal spent in the target quadrant were also performed. […]\nFinally, drugs inducing neurobehavioural profile are evaluated in the water maze spatial learning paradigm, a robust task of information acquisition and consolidation—a measure of cognitive action"}, "C57B16 mice [2]": {"test_system": "C57B16 mice", "experiment": "Open field test", "assay_type": "in vivo", "settings": "20 and 50 mg/kg i.p. once daily for 7 days prior to testing, FIG. 3", "from_the_text": "The Open Field test is designed to measure behavioural responses such as locomotor activity, hyperactivity, and exploratory behaviors. Open Field is also used as a measure of anxiety. Rats and mice tend to avoid brightly illuminated, novel, open spaces, so the open field environment acts as an anxiogenic stimulus and allows for measurement of anxiety-induced locomotor activity and exploratory behaviours. Open field testing is a one trial test with little or no impact on the animal's subsequent behaviour. The apparatus for the Open Field test was a square (100 cm by 100 cm) made of white Perspex. Each rat is placed in a corner of the field and its behaviour recorded for five minutes. All activity is recorded by a video camera mounted above the open field and scored in real-time (or digitized and scored later) by the advanced motion-recognition software package Ethovision by Noldus, that detects and analyzes the movements of the rat or mouse. The total distance, average speed, rearing/elongation behaviour, and time spent in various parts of the field (such as, for example, the border areas vs. the open, middle area) is measured and analysed. Testing is carried out in a temperature, noise and light controlled room.\nThe Experimental protocol employed in the behavioural evaluation of Meparfynol is outlined in FIG. 7. Two separate cohorts of C57B16 mice were employed. […]"}, "C57B16 mice [3]": {"test_system": "C57B16 mice", "experiment": "Pre-pulse inhibition (PPI) of the startle response in mice", "assay_type": "in vivo", "settings": "20 mg/kg i.p., FIG. 5A", "from_the_text": "Prepulse inhibition is a procedure whereby a preceding stimulus attenuates the startle response. The reduced ability to filter out irrelevant auditory stimulation is a characteristic which is thought to contribute to certain manifestations of conditions including inattention, distractibility, and cognitive deficits. The test is quite useful for evaluating transgenic models of schizophrenia as well as to screen potential antipsychotic drugs.\nAn example of one way of testing for PPI: In the prepulse inhibition (PPI) procedure, the rodent is placed in a small chamber and exposed to a brief pulse of noise. […]\nThe main three parts of the procedure are prepulse, startle stimulus, and startle reflex. […] Startle response is measured in rodents using the so-called automated “startle chambers” or “stabilimeter chambers”, with detectors recording whole-body reaction. In humans, the movements of oculomotor muscles (“eye-blink reflex” or “eye-blink response” assessed using electromyographic recording of orbicularis oculi muscle and by oculography) could be used as a measure. […]\nMepfarynol was administered by the intraperitoneal route at the doses indicated and as per details outlined above. Values were analysed using a two way ANOVA and Student t-test and those with a p value<0.05 were accepted as significant and where appropriate are indicated with an asterisk."}, "[4]": {"test_system": "receptors (cell lines that express only one type of receptor)", "experiment": "Novascreen receptor affinity screen (competition with a reference ligand)", "assay_type": "binding", "settings": "1 μM Meparfynol, all top ranking receptors; FIG. 8C", "protocol": "Analysis of receptor affinities was performed by Novascreen™ (www.novascreen.com) and those displacing >20% of the natural ligand are indicated by the filled boxes. Blood levels of Mepfarynol were determined by GC mass spectroscopy in separate samples taken from a cannulated jugular at increasing time intervals following a single intraperitoneal injection of the drug ([…]).\nThe higher the target inhibition value, the greater the affinity Meparfynol has for this particular receptor as it displaces a greater proportion of the reference ligand. This assay is an automated high throughput assay performed on cell lines that express only one type of receptor and was carried out by Novascreen (www.novascreen.com)."}, "C57B16 mice [5]": {"test_system": "C57B16 mice", "experiment": "Novel object recognition (NOR) test", "assay_type": "in vivo", "settings": "FIG. 4", "from_the_text": "This test is useful for evaluating the role of experimental manipulations on cognition. The recognition test is based on the natural tendency of rodents to investigate a novel object instead of a familiar one. The choice to explore the novel object reflects the use of learning and (recognition) memory processes. Novel Object Recognition (NOR) is based on the premise that rodents will explore a novel object more than a familiar one, but only if they remember the familiar one. This tendency is actually shared by humans, as looking time is often used to make inferences about an infant's memory in the absence of explicit, verbal recognition.\nBefore training the animals with objects, they are first allowed to acclimatise to the testing environment, a white Perspex box (30 cm by 20 cm) equipped with an overhead camera. After an acclimation session, the animals are ready for the training stage. […]\nThe amount of time that the rodents spends exploring each object can be calculated by hand or by using a computer program receiving input from the overhead camera. […]"}, "rats reared in isolation": {"test_system": "rats reared in isolation", "experiment": "Pre-pulse inhibition (PPI) of the startle response in rats reared in isolation", "assay_type": "in vivo", "settings": "20 mg/kg, p<0.05, two-way ANOVA, FIG. 5B", "from_the_text": "This reduction or inhibition of startle is not observed in the isolated animals.\nOne of the most robust, non-invasive rodent models used for studies relating to schizophrenia is isolation rearing of rats (Weiss and Feldon, 2001; Fone and Porkess, 2008). […] PPI is used as an operational measure of sensorimotor gating and is known to be defective in schizophrenics (Swerdlow et al., 1994; Ludewig et al., 2002). […] Reduction or inhibition of startle is not observed in the isolated animals control."}, "C57B16 mice [6]": {"test_system": "C57B16 mice", "experiment": "Neurobehavioural screening (modified SHIRPA protocol), neophobia", "assay_type": "in vivo", "settings": "chronic administration protocol, 1 dose/day prior to testing", "protocol": "The Experimental protocol employed in the behavioural evaluation of Meparfynol is outlined in FIG. 7. Two separate cohorts of C57B16 mice were employed. Cohort 1 was used to evaluate the drug effect on prepulse inhibition, open-field and novel object recognition. Cohort 2 was used to evaluate drug effects on spatial learning. The behavioural tests were administered in sequence as per day number indicated in the bar. The drug was administered by the intraperitoneal route and on the day of training the drug was administered after the behavioural analysis. Meparfynol/UCD-1216 was administered at doses of 20 and 50 mg/kg. The compounds were administered once daily, via the intraperitoneal route, for 7 days prior to testing and the animals were drug-free at time of training.\nA modified SHIRPA protocol was adopted in order to provide an in vivo drug profile. The SHIRPA protocol is used in both academic and industrial environments for an initial behavioural characterisation of potential psychopharmaceuticals. The first behavioural tier analysis of our modified screen comprised open-field (FIG. 3), novel object recognition (NOR; FIG. 4), and pre-pulse inhibition (PPI; FIGS. 5A and 5B) paradigms. These psycho-pharmacological tests are described in more detail below: […]"}, "[7]": {"settings": "in vivo; cited from earlier work"}, "frontal cortex": {"test_system": "frontal cortex", "settings": "after administration; Society for Neuroscience meeting November 2000; cited from earlier work"}}, "note": "“Also recorded” adds a separate entry of the source.", "data": [{"smiles": "C#C[C@](C)(O)CC", "note": "(stereo in doubt) [Meparfynol, 3-methylpent-1-yn-3-ol]", "values": [{"measurement": "spatial learning in the water maze", "setting": "C57B16 mice [1]", "value": "enhanced spatial learning; also recorded: significant pro-cognitive actions"}, {"measurement": "effect in the open-field paradigm (locomotor activity)", "setting": "C57B16 mice [2]", "value": "little effect"}, {"measurement": "pre-pulse inhibition of startle response", "setting": "C57B16 mice [3]", "value": "significantly enhances"}, {"measurement": "percent target inhibition (reference ligand prevented from binding)", "setting": "[4]", "value": "less than 20%"}, {"measurement": "working memory as measured by the NOR test (exploratory bias for the novel object)", "setting": "C57B16 mice [5]; 20 and 50 mg/kg i.p. once daily for 7 days prior to testing", "value": "modest enhancement"}, {"measurement": "novel object exploratory time", "setting": "C57B16 mice [5]; compared to the vehicle-treated controls", "value": "significantly reduced"}, {"measurement": "pre-pulse inhibition of startle response", "setting": "rats reared in isolation", "value": "significantly enhances"}, {"measurement": "neophobia (fear of anything new)", "setting": "C57B16 mice [6]", "value": "reduced neophobia"}]}, {"smiles": "CC12CC3CC(C)(C1)CC(N)(C3)C2", "note": "[Memantine, 1-amino-3,5-dimethyl adamantane]", "values": [{"measurement": "administered dose excreted unchanged in urine", "setting": "[7]", "value": "57-82%"}]}, {"smiles": "COc1ccc(NS(=O)(=O)c2sc3ccc(Cl)cc3c2C)cc1N1CCNCC1", "note": "[SB-271046]", "values": [{"measurement": "glutamate and aspartate levels in the frontal cortex", "setting": "frontal cortex", "value": "significant increase"}, {"measurement": "noradrenaline, dopamine or 5-HT levels", "setting": "frontal cortex", "value": "without affecting"}]}]}
